Source: US20050187264A1, “Phosphodiesterase iv inhibitor containing pyridylacrylamide derivative” (priority 2002, published 2005)

Test system: Phosphodiesterase IV
Test: Inhibitory action on phosphodiesterase IV ([3H]cAMP hydrolysis, liquid scintillation)
Format: biochemical
Conditions: test substance 10 μM; enzyme isolated from U-937 cell; cAMP 1 μM substrate; 30 min at 30° C.; duplicate
Description: Phosphodiesterase IV was isolated using U-937 cell as origin (Torphy, T. J. et al., J. Pharmacol. Exp. Ther., 263, 1195-1205 (1992)). Using [^3 H]cAMP and cAMP (1 μM) as substrate/tracer, incubation was performed for 30 min at 30° C. [^3H]5′-AMP was measured by liquid scintillation. Inhibitory activity is represented by the rate of inhibition of a test substance with respect to a control group that is without the test substance, and is calculated by the following formula: Inhibitory activity (%)=100×(control group value−value of group with test substance addition/control group value.
All tests were implemented in duplicate.

Structure (SMILES)	Phosphodiesterase IV inhibitory activity (10 μM) [%]
COc1ccc(CCNC(=S)/C=C/c2cccnc2)cc1OC.Cl [Compound 136]	45
COc1ccc(CCN(C)C(=O)/C=C/c2cccnc2)cc1OC [Compound 144]	47
COc1ccc(CCN(C)C(=O)/C=C/c2cccnc2)cc1OC [Compound 143]	50
COc1ccc(CCN(C)C(=O)/C=C/c2cccnc2)cc1OC [Compound 146]	43
COc1ccc(CCN(C)C(=O)/C(C#N)=C/c2cccnc2)cc1OC [Compound 2]	72
COc1ccc(CCN(C)C(=O)/C=C/c2cccnc2)cc1OC.Cl [Compound 140]	54
COc1ccc(CCN(C)C(=O)/C=C/c2cccnc2)cc1OC [Compound 84, (E)-N-(3,4-dimethoxyphenethyl)-N-methyl-3-(3-pyridyl)-2-propenamide]	49
COc1ccc(C(=O)CN(C)C(=O)/C=C/c2cccnc2)cc1OC [Compound 155, (E)-N-[2-(3,4-dimethoxyphenyl)-2-oxoethyl]-N-methyl-3-(3-pyridyl)-2-propenamide]	69
COc1ccc(CCN(C)C(=O)/C=C/c2ccccn2)cc1OC.Cl [Compound 153]	59
COc1ccc(CCN(C)C(=S)/C=C/c2cccnc2)cc1OC.Cl [Compound 135, (E)-N-(3,4-dimethoxyphenethyl)-N-methyl-3-(3-pyridyl)-2-propenethioamide Hydrochloride]	53

Test system: not given
Test: not given
Conditions: not given

Structure (SMILES)	melting point [°C]
COc1ccc(CCNC(=S)/C=C/c2cccnc2)cc1OC.Cl [Compound 136]	182 to 187
CCOC(=O)COc1ccc(CNC(=O)/C=C/c2cccnc2)cc1OC [Compound 105]	105 to 107
COc1ccc(CCN(C)C(=O)/C(C#N)=C/c2cccnc2)cc1OC [Compound 2]	115 to 120
COC(=O)CN(CCc1ccc(OC)c(OC)c1)C(=O)/C=C/c1cccnc1.Cl	168 to 170
COCCOCOc1c(OC)cc(CCN(C)C(=O)/C=C/c2cccnc2)cc1OC [Compound 36]	152 to 155
